Some test systems named below: HCT-116 colon; CAKI-1 renal; SK-MEL-2 melanoma; OVCAR-5 ovarian; MDA-MB-435; SW-620 colon; HOP-62 NSCLC; MDA-MB-231 breast; KM12 colon; K-562 leukemia.
Experiment in all cases: NCI-60 cell line screen, 48 h

The structures appear in SMILES notation.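 Exposure lasted 48 hours, with cells grown in 96-well plates and compounds tested at five concentrations. GI50: concentration for 50% inhibition of growth. At the TGI there is no net growth.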

On to `CCCCCCCCCCSC(=N)N`, for which the GI50 was 2.96 µM in the test with HCT-116 colon; 1.75 µM with CAKI-1 renal; 1.68 µM in the test on SK-MEL-2 melanoma; 9.84 µM in the test on OVCAR-5 ovarian; 1.77 µM with MDA-MB-435; 1.7 µM in the test on SW-620 colon. Moreover, the values for the GI50 in the test with HOP-62 NSCLC, in the test with MDA-MB-231 breast and with KM12 colon were 3.36 µM, 2.51 µM and 2.45 µM, respectively. The TGI in the test with HCT-116 colon amounted to 10.1 µM; in the test with CAKI-1 renal, 5.26 µM; in the test on SK-MEL-2 melanoma it was 3.27 µM; in the test on OVCAR-5 ovarian, 23.5 µM; in the test on MDA-MB-435, 4.01 µM; in the test with SW-620 colon it was 3.52 µM. For the same compound, the TGI was 10.3 µM with HOP-62 NSCLC, 9.15 µM with MDA-MB-231 breast and 6.5 µM in the test with KM12 colon.

`O=C(/C=C/c1ccccc1)CCC1C(=O)NC(=S)NC1=O`: the TGI in the test with HCT-116 colon, in the test on CAKI-1 renal, with SK-MEL-2 melanoma, in the test on OVCAR-5 ovarian, in the test on MDA-MB-435 and in the test on SW-620 colon was over 100 µM throughout. The TGI in the test on K-562 leukemia and in the test on MDA-MB-231 breast was over 100 µM each time.

As to `Nc1ccn(C2OC(C(OC3OC(CO)C(O)C(N)C3O)C(O)C(O)C(O)C(O)CO)C(N)C(O)C2O)c(=O)n1` (stereo not drawn), the TGI in the test on HCT-116 colon, in the test with CAKI-1 renal, with SK-MEL-2 melanoma, in the test on OVCAR-5 ovarian, in the test on MDA-MB-435 and with SW-620 colon was over 100 µM in each case. Moreover, the TGI in the test on HOP-62 NSCLC is over 100 µM; with MDA-MB-231 breast, 41.1 µM; with KM12 colon it was over 100 µM.

Take `COc1cc(-c2cc(=O)c3c(O)c(OC)c(OC)c(OC)c3o2)cc(OC)c1OC`: the TGI with HCT-116 colon is over 44.9 µM; with SK-MEL-2 melanoma, over 100 µM; in the test on OVCAR-5 ovarian, over 100 µM; with MDA-MB-435 it was over 100 µM; in the test with HOP-62 NSCLC it was 16.9 µM; in the test with K-562 leukemia, over 100 µM. Besides, the values for the TGI in the test on MDA-MB-231 breast and in the test on KM12 colon were 38.5 µM and over 100 µM, respectively.

For the compound `Cc1c(Cl)c(C)c(Cc2c(C)c(Cl)c(C)c(Cl)c2O)c(O)c1Cl`, the GI50 is 2.42 µM with HCT-116 colon; 2.3 µM with CAKI-1 renal; 2.85 µM in the test on SK-MEL-2 melanoma; 3.67 µM in the test on OVCAR-5 ovarian; 3.13 µM in the test on MDA-MB-435; 3.14 µM with SW-620 colon. Also, the GI50 in the test with K-562 leukemia is 2.21 µM; in the test with MDA-MB-231 breast it was 2.38 µM; with KM12 colon, 3.34 µM. For the same compound, the TGI in the test on HCT-116 colon was 10.5 µM; with CAKI-1 renal it was 9.77 µM; in the test on SK-MEL-2 melanoma it was 9.73 µM; in the test with OVCAR-5 ovarian it was 14.4 µM; with MDA-MB-435, 11.1 µM; in the test on SW-620 colon, 13.5 µM. Further, the TGI came to 14.1 µM with K-562 leukemia, 7.2 µM in the test with MDA-MB-231 breast and 11.4 µM in the test with KM12 colon.

As to `Cc1ccc(S(=NS(=O)(=O)c2ccc(C)cc2)c2ccc(C)cc2)cc1`, the TGI in the test with HCT-116 colon, in the test with OVCAR-5 ovarian, with MDA-MB-435, in the test with SW-620 colon, in the test on HOP-62 NSCLC and in the test on K-562 leukemia was over 100 µM each time. In the test on KM12 colon, this compound registered a TGI of over 100 µM.

With `CCOC(=O)CC(NC(=O)c1ccc(N=NN(C)C)cc1)C(=O)OCC` (stereo not drawn), the TGI in the test on HCT-116 colon, in the test with CAKI-1 renal, with SK-MEL-2 melanoma, in the test with OVCAR-5 ovarian, with SW-620 colon and with HOP-62 NSCLC was over 100 µM throughout. For the same compound, the TGI in the test on K-562 leukemia and with KM12 colon was over 100 µM in each case.

For `CC(C(N)=O)N(C)C(=O)c1cnc2ccccc2c1` (stereo not drawn), the TGI in the test with HCT-116 colon, in the test with CAKI-1 renal, with SK-MEL-2 melanoma, with OVCAR-5 ovarian, with MDA-MB-435 and in the test with SW-620 colon was over 100 µM throughout. Further, the TGI in the test with K-562 leukemia, in the test on MDA-MB-231 breast and in the test with KM12 colon was over 100 µM throughout.

In the case of `N#C/C(=C\c1ccc2[nH]ccc2c1)C(=O)c1ccc(O)c(O)c1`, the TGI with HCT-116 colon, with CAKI-1 renal, in the test on SK-MEL-2 melanoma, with OVCAR-5 ovarian, in the test on MDA-MB-435 and in the test with SW-620 colon was over 100 µM in each case. Further, the TGI in the test with HOP-62 NSCLC, in the test with K-562 leukemia and in the test on KM12 colon was over 100 µM each time.

Regarding `NS(=O)(=O)c1ccc(NC(=O)c2cccc(NC3=C(Cl)C(=O)N(Cc4ccccc4)C3=O)c2)cc1`, the GI50 is 13.9 µM in the test with HCT-116 colon; 12.5 µM with CAKI-1 renal; 10.3 µM with SK-MEL-2 melanoma; 8.63 µM in the test on MDA-MB-435; 6.1 µM in the test with SW-620 colon; 31.5 µM with HOP-62 NSCLC. Besides, the GI50 is 2.27 µM in the test with K-562 leukemia, 6.93 µM with MDA-MB-231 breast and 6.83 µM in the test on KM12 colon. Also, the TGI with HCT-116 colon was 43.4 µM; in the test on CAKI-1 renal, 25.9 µM; in the test on SK-MEL-2 melanoma, 33.2 µM; in the test on MDA-MB-435, 24.1 µM; in the test on SW-620 colon it was 44.4 µM; in the test on HOP-62 NSCLC it was over 100 µM. In addition, the TGI in the test with K-562 leukemia was determined as 6.09 µM; with MDA-MB-231 breast it was 37 µM; with KM12 colon, 26.5 µM.

With `CN(C(=O)CNC(=O)/C=C/c1cccc(Cl)c1)C1CCS(=O)(=O)CC1`, the GI50 was 1.52 µM in the test on HCT-116 colon; 3.78 µM in the test with CAKI-1 renal; 15.6 µM with SK-MEL-2 melanoma; 8.5 µM in the test with OVCAR-5 ovarian; 2.1 µM with MDA-MB-435; 3.51 µM with SW-620 colon. The GI50 was 11 µM in the test on HOP-62 NSCLC, 0.525 µM with MDA-MB-231 breast and 7.99 µM in the test with KM12 colon. For the same compound, the TGI in the test with HCT-116 colon, with CAKI-1 renal, in the test on SK-MEL-2 melanoma, in the test on OVCAR-5 ovarian, in the test with MDA-MB-435 and in the test with SW-620 colon was over 100 µM each time. Besides, the TGI in the test with HOP-62 NSCLC, in the test with MDA-MB-231 breast and with KM12 colon was over 100 µM throughout.

On to `CCc1cc(Cc2ccc(C)c(NC(=O)C(=O)C3C(=O)NC(=O)NC3=O)c2CC)cc(C)c1NC(=O)C(=O)C1C(=O)NC(=O)NC1=O`, for which the TGI in the test with HCT-116 colon, in the test with CAKI-1 renal, in the test on SK-MEL-2 melanoma, in the test with OVCAR-5 ovarian, with SW-620 colon and with HOP-62 NSCLC was over 100 µM in each case. The TGI in the test with K-562 leukemia and in the test with KM12 colon was over 100 µM throughout.
